Measured values: patent US20260234159A1, “SMALL MOLECULE TREATMENT OF FATTY LIVER DISEASE AND HCC” (SCANDIEDGE THERAPEUTICS AB, priority 2023, published 2026)

What was measured:
[1] = MTT cell viability after one week steatosis (ranking of target molecules); assay type: cell-based, human; details: human, HepG2 cells (wild type); HepG2, 10 μM, one week steatosis induce media, MTT; Control 100.00
Method in brief: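 HepG2 cells, 60,000 per well, kept one week in steatosis medium (high-glucose DMEM, 10 μg/ml insulin, 10 μM T0901317) with 10 μM compound. Medium changed at day 0, 3 and 5. Viability measured by MTT.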

HepG2 cells = test: FACs analysis with PI staining (cell cycle); assay type: cell-based, human; details: for Cell population G0/G1 / Cell population G2/M / Cell population S: PI FACs, 10 μM, 2 days
Method: 400,000 HepG2 cells were seeded in a 6-well plated and treated with 10 μM of the compounds for 2 days. Cells were fixed with 70% ethanol and stained with 50 μg/ml PI. Prepared cells were analysed using BD FACS Canto II Flow Cytometry system at PE-A channel 10,000 cells per group. The data was histogram plotted with BD FACSDiva 9.0.

[2] = In vivo toxicological study in rats: haematology; parameters: species or system rats of the Wistar strain
Method: Forty-two male and forty-two female rats of the Wistar strain were allocated to the study. Three groups of three males and three females were given doses of 30, 100 and 300 mg/kg of target compounds (Table 8). The vehicle was 1.5 w/w % HPMC, 1.5 w/w % PS80 in 10 mM PBS, pH 7 and dose volume were 5 mL/kg. The animals were acclimatised at least 14 day prior to the study and exposed to a 12 hours light, 12 hours dark light cycle. The formulations were administered via oral gavage. Administration occurred once daily in the morning for seven consecutive days. Blood for scheduled haematology and plasma chemistry were taken at necropsy. For plasma chemistry, 0.6 ml blood (lithium heparin) per animal and for haematology, 0.5 ml blood (K2EDTA) per animal. The blood and plasma were analysed using Exigo analyzer and Vetscan equipment. Blood was analysed within 60 min of sampling. On the morning of analysis, the Exigo analyzer was checked against a reference sample provided by the manufacturer, and a control sample analysis cycle was performed (Table 9).

[3] = In vivo toxicological study in rats: clinical observations and body weight; details: 300 mg/kg oral administration
Method: Forty-two male and forty-two female rats of the Wistar strain were allocated to the study. Three groups of three males and three females were given doses of 30, 100 and 300 mg/kg of target compounds (Table 8). The vehicle was 1.5 w/w % HPMC, 1.5 w/w % PS80 in 10 mM PBS, pH 7 and dose volume were 5 mL/kg.
The animals were acclimatised at least 14 day prior to the study and exposed to a 12 hours light, 12 hours dark light cycle. The formulations were administered via oral gavage. Administration occurred once daily in the morning for seven consecutive days.
A check of animal health and welfare status was done at least once on working days and weekend days.
Body weights were recorded the week before and within 24 hours before start of dosing, on Day 3 and on necropsy Day 8.

[4] = female, 30 mg/kg oral daily 7 d
[5] = female, 100 mg/kg oral daily 7 d
[6] = female, 300 mg/kg oral daily 7 d

N#Cc1c(NC(=O)c2cccc3ccccc23)sc2c1CCCC2 [JNK-IN-5A, N-(3-cyano-4,5,6,7-tetrahydrobenzo[b]thiophen-2-yl)-1-naphthamide]
viability at 1 week, 10 µM [1]: 56.4%
cell cycle distribution / arrest (HepG2 cells; PI FACS): significant G2/M cell cycle arrest
Cell population G0/G1 (HepG2 cells): 22.7
Cell population G2/M (HepG2 cells): 67.3
Cell population S (HepG2 cells): 4.4

COc1ccc(C(=O)Nc2sc3c(c2C#N)CCCCC3)cc1OC [PKL-A135, N-(3-cyano-5,6,7,8-tetrahydro-4H-cyclohepta[b]thiophen-2-yl)-3,4-dimethoxy-benzamide]
viability at 1 week, 10 µM [1]: 63.2%
Cell population G0/G1 (HepG2 cells): 5.5
Cell population G2/M (HepG2 cells): 79.9
Cell population S (HepG2 cells): 2.0
cells in the G2/M phase (HepG2 cells; histogram plots): around 89%
GRAN [2, 4]: 0.97 10^9/l
HCT [2, 4]: 41.7%
HGB [2, 4]: 14.2 g/dL
LYM [2, 4]: 5.4 10^9/l
MCH [2, 4]: 19.5 pg
MCHC [2, 4]: 34.1 g/dL
MCV [2, 4]: 57.4 fL
MONO [2, 4]: 0.17 10^9/l
PLT [2, 4]: 1014 10^9/l
RBC [2, 4]: 7.26 10^12/l
RDW % [2, 4]: 14.2%
WBC [2, 4]: 6.6 10^9/l
GRAN [2, 5]: 1.33 10^9/l
HCT [2, 5]: 42.1%
HGB [2, 5]: 14.4 g/dL
LYM [2, 5]: 6.7 10^9/l
MCH [2, 5]: 19.9 pg
MCHC [2, 5]: 34.1 g/dL
MCV [2, 5]: 58.4 fL
MONO [2, 5]: 0.27 10^9/l
PLT [2, 5]: 978 10^9/l
RBC [2, 5]: 7.21 10^12/l
RDW % [2, 5]: 13.7%
WBC [2, 5]: 8.3 10^9/l
GRAN [2, 6]: 1.10 10^9/l
HCT [2, 6]: 42.8%
HGB [2, 6]: 14.7 g/dL
LYM [2, 6]: 5.1 10^9/l
MCH [2, 6]: 20.8 pg
MCHC [2, 6]: 34.2 g/dL
MCV [2, 6]: 60.8 fL
MONO [2, 6]: 0.20 10^9/l
PLT [2, 6]: 1011 10^9/l
RBC [2, 6]: 7.04 10^12/l
RDW % [2, 6]: 13.8%
WBC [2, 6]: 6.4 10^9/l
GRAN ([2]; male, 30 mg/kg oral daily 7 d): 1.83 10^9/l
HCT ([2]; male, 30 mg/kg oral daily 7 d): 44.3%
HGB ([2]; male, 30 mg/kg oral daily 7 d): 15 g/dL
LYM ([2]; male, 30 mg/kg oral daily 7 d): 6.5 10^9/l
MCH ([2]; male, 30 mg/kg oral daily 7 d): 19.7 pg
MCHC ([2]; male, 30 mg/kg oral daily 7 d): 33.9 g/dL
MCV ([2]; male, 30 mg/kg oral daily 7 d): 58.2 fL
MONO ([2]; male, 30 mg/kg oral daily 7 d): 0.30 10^9/l
PLT ([2]; male, 30 mg/kg oral daily 7 d): 841 10^9/l
RBC ([2]; male, 30 mg/kg oral daily 7 d): 7.62 10^12/l
RDW % ([2]; male, 30 mg/kg oral daily 7 d): 14.1%
WBC ([2]; male, 30 mg/kg oral daily 7 d): 8.6 10^9/l
GRAN ([2]; male, 100 mg/kg oral daily 7 d): 1.17 10^9/l
HCT ([2]; male, 100 mg/kg oral daily 7 d): 43.2%
HGB ([2]; male, 100 mg/kg oral daily 7 d): 14.6 g/dL
LYM ([2]; male, 100 mg/kg oral daily 7 d): 6.1 10^9/l
MCH ([2]; male, 100 mg/kg oral daily 7 d): 19.6 pg
MCHC ([2]; male, 100 mg/kg oral daily 7 d): 33.7 g/dL
MCV ([2]; male, 100 mg/kg oral daily 7 d): 58.1 fL
MONO ([2]; male, 100 mg/kg oral daily 7 d): 0.17 10^9/l
PLT ([2]; male, 100 mg/kg oral daily 7 d): 815 10^9/l
RBC ([2]; male, 100 mg/kg oral daily 7 d): 7.43 10^12/l
RDW % ([2]; male, 100 mg/kg oral daily 7 d): 14.4%
WBC ([2]; male, 100 mg/kg oral daily 7 d): 7.4 10^9/l
GRAN ([2]; male, 300 mg/kg oral daily 7 d): 1.13 10^9/l
HCT ([2]; male, 300 mg/kg oral daily 7 d): 43.8%
HGB ([2]; male, 300 mg/kg oral daily 7 d): 14.9 g/dL
LYM ([2]; male, 300 mg/kg oral daily 7 d): 6.2 10^9/l
MCH ([2]; male, 300 mg/kg oral daily 7 d): 20.7 pg
MCHC ([2]; male, 300 mg/kg oral daily 7 d): 34 g/dL
MCV ([2]; male, 300 mg/kg oral daily 7 d): 60.9 fL
MONO ([2]; male, 300 mg/kg oral daily 7 d): 0.20 10^9/l
PLT ([2]; male, 300 mg/kg oral daily 7 d): 924 10^9/l
RBC ([2]; male, 300 mg/kg oral daily 7 d): 7.20 10^12/l
RDW % ([2]; male, 300 mg/kg oral daily 7 d): 14.0%
WBC ([2]; male, 300 mg/kg oral daily 7 d): 7.5 10^9/l
tolerability (adverse clinical signs, body weight, clinical pathology parameters) [3]: well tolerated

COc1ccccc1NC(=O)N1CCc2c(sc(NC(=O)c3cccc4ccccc34)c2C#N)C1 [PKL-A152]
viability at 1 week, 10 µM [1]: 43.9%
GRAN [2, 4]: 1.00 10^9/l
HCT [2, 4]: 41.5%
HGB [2, 4]: 14.1 g/dL
LYM [2, 4]: 5.6 10^9/l
MCH [2, 4]: 19.5 pg
MCHC [2, 4]: 34.1 g/dL
MCV [2, 4]: 57.2 fL
MONO [2, 4]: 0.17 10^9/l
PLT [2, 4]: 1089 10^9/l
RBC [2, 4]: 7.24 10^12/l
RDW % [2, 4]: 13.9%
WBC [2, 4]: 6.8 10^9/l
GRAN [2, 5]: 1.20 10^9/l
HCT [2, 5]: 42.0%
HGB [2, 5]: 14.3 g/dL
LYM [2, 5]: 5.7 10^9/l
MCH [2, 5]: 19.5 pg
MCHC [2, 5]: 34 g/dL
MCV [2, 5]: 57.4 fL
MONO [2, 5]: 0.17 10^9/l
PLT [2, 5]: 1122 10^9/l
RBC [2, 5]: 7.32 10^12/l
RDW % [2, 5]: 14.0%
WBC [2, 5]: 7.1 10^9/l
GRAN [2, 6]: 1.03 10^9/l
HCT [2, 6]: 42.9%
HGB [2, 6]: 14.7 g/dL
LYM [2, 6]: 4.8 10^9/l
MCH [2, 6]: 19.7 pg
MCHC [2, 6]: 34.1 g/dL
MCV [2, 6]: 57.7 fL
MONO [2, 6]: 0.23 10^9/l
PLT [2, 6]: 1062 10^9/l
RBC [2, 6]: 7.43 10^12/l
RDW % [2, 6]: 14.1%
WBC [2, 6]: 6.0 10^9/l
GRAN ([2]; male, 30 mg/kg oral daily 7 d): 1.50 10^9/l
HCT ([2]; male, 30 mg/kg oral daily 7 d): 46.3%
HGB ([2]; male, 30 mg/kg oral daily 7 d): 15.6 g/dL
LYM ([2]; male, 30 mg/kg oral daily 7 d): 5.9 10^9/l
MCH ([2]; male, 30 mg/kg oral daily 7 d): 19.6 pg
MCHC ([2]; male, 30 mg/kg oral daily 7 d): 33.8 g/dL
MCV ([2]; male, 30 mg/kg oral daily 7 d): 58.0 fL
MONO ([2]; male, 30 mg/kg oral daily 7 d): 0.23 10^9/l
PLT ([2]; male, 30 mg/kg oral daily 7 d): 922 10^9/l
RBC ([2]; male, 30 mg/kg oral daily 7 d): 7.97 10^12/l
RDW % ([2]; male, 30 mg/kg oral daily 7 d): 14.2%
WBC ([2]; male, 30 mg/kg oral daily 7 d): 7.7 10^9/l
GRAN ([2]; male, 100 mg/kg oral daily 7 d): 1.47 10^9/l
HCT ([2]; male, 100 mg/kg oral daily 7 d): 44.7%
HGB ([2]; male, 100 mg/kg oral daily 7 d): 15.1 g/dL
LYM ([2]; male, 100 mg/kg oral daily 7 d): 6.9 10^9/l
MCH ([2]; male, 100 mg/kg oral daily 7 d): 19.8 pg
MCHC ([2]; male, 100 mg/kg oral daily 7 d): 33.8 g/dL
MCV ([2]; male, 100 mg/kg oral daily 7 d): 58.8 fL
MONO ([2]; male, 100 mg/kg oral daily 7 d): 0.17 10^9/l
PLT ([2]; male, 100 mg/kg oral daily 7 d): 990 10^9/l
RBC ([2]; male, 100 mg/kg oral daily 7 d): 7.63 10^12/l
RDW % ([2]; male, 100 mg/kg oral daily 7 d): 14.6%
WBC ([2]; male, 100 mg/kg oral daily 7 d): 8.5 10^9/l
GRAN ([2]; male, 300 mg/kg oral daily 7 d): 1.17 10^9/l
HCT ([2]; male, 300 mg/kg oral daily 7 d): 45.6%
HGB ([2]; male, 300 mg/kg oral daily 7 d): 15.4 g/dL
LYM ([2]; male, 300 mg/kg oral daily 7 d): 5.8 10^9/l
MCH ([2]; male, 300 mg/kg oral daily 7 d): 19.7 pg
MCHC ([2]; male, 300 mg/kg oral daily 7 d): 33.8 g/dL
MCV ([2]; male, 300 mg/kg oral daily 7 d): 58.4 fL
MONO ([2]; male, 300 mg/kg oral daily 7 d): 0.17 10^9/l
PLT ([2]; male, 300 mg/kg oral daily 7 d): 1046 10^9/l
RBC ([2]; male, 300 mg/kg oral daily 7 d): 7.80 10^12/l
RDW % ([2]; male, 300 mg/kg oral daily 7 d): 14.4%
WBC ([2]; male, 300 mg/kg oral daily 7 d): 7.2 10^9/l
tolerability (adverse clinical signs, body weight, clinical pathology parameters) [3]: well tolerated
